Key:
[1] = compound: COc1cc(-c2nn([C@H]3CC[C@H](N4CCN(C(C)=O)CC4)CC3)c3ncnc(N)c23)ccc1NC(=O)c1cc2ccccc2n1C + COc1cc2c(Oc3ccc(NC(=O)C4(C(=O)Nc5ccc(F)cc5)CC4)cc3F)ccnc2cc1OCCCN1CCOCC1 [Foretinib] (partner 0.25 µM); experiment: relative viability (nuclei count vs DMSO), 5 days (fraction); higher = more cells survive
In short: (§1)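 The day after seeding in 1536-well plates, lung cancer cell lines were treated by pin tool with a single drug, or with a fixed anchor-drug dose together with five library-drug doses (not always all listed) in √10 steps. After 5 days, a combined fix-and-stain solution (final 0.05% Triton X-100, 1% formaldehyde, 1 ug/ml Hoechst) was added. Nuclei counted on 4× images gave relative viability as treated counts over vehicle counts, reported as the median of duplicate plates.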

Midostaurin + Navitoclax = compound: CO[C@@H]1[C@H](N(C)C(=O)c2ccccc2)C[C@H]2O[C@]1(C)n1c3ccccc3c3c4c(c5c6ccccc6n2c5c31)C(=O)NC4 [Midostaurin] + CC1(C)CCC(c2ccc(Cl)cc2)=C(CN2CCN(c3ccc(C(=O)NS(=O)(=O)c4ccc(N[C@H](CCN5CCOCC5)CSc5ccccc5)c(S(=O)(=O)C(F)(F)F)c4)cc3)CC2)C1 [Navitoclax] (partner 0.5 µM); experiment: as above
In short: as §1

Cell Line	relative viability ([1]; first compound 0.0128 µM)	relative viability ([1]; first compound 0.04048 µM)	relative viability ([1]; first compound 0.128 µM)	relative viability ([1]; first compound 1.28 µM)	relative viability (Midostaurin + Navitoclax; first compound 0.01 µM)	relative viability (Midostaurin + Navitoclax; first compound 0.03162 µM)	relative viability (Midostaurin + Navitoclax; first compound 0.1 µM)	relative viability (Midostaurin + Navitoclax; first compound 0.3162 µM)
SK-MES-1	0.894	1.14	0.986	1	1.17	1.13	1.18	1.15
HCC-366	0.948	0.841	0.98	0.757	1.07	1.16	1	1.06
201T	1.06	1.19	0.859	0.594	1.19	1.2	1.17	1.25
HCC-827	0.998	0.943	1.02	0.756	1.03	0.987	0.958	1.1
NCI-H647	1.16	1.44	1.21	0.806	1.16	0.997	0.953	0.738
NCI-H2023	0.802	0.804	0.717	0.535	1.07	0.898	0.92	0.903
NCI-H520	0.755	0.731	0.65	0.613	1.05	1.17	1.02	0.865
RERF-LC-KJ	0.867	0.957	0.838	0.864	1.02	1.05	1.19	0.998
A-427	1.03	–	0.988	0.884	0.977	0.859	0.883	0.767
NCI-H441	1.09	1.29	0.998	0.89	0.402	0.832	0.522	0.554
NCI-H1703	0.297	–	0.262	0.167	1.21	0.974	0.75	0.312
NCI-H1792	–	–	–	–	0.613	0.591	0.601	0.647
Calu-6	0.905	0.813	0.823	0.659	0.69	0.757	0.709	0.697
SK-LU-1	0.769	0.798	0.691	0.376	0.703	0.704	0.808	0.886
PC-3 [JPC-3]	1.07	1.14	1	1.06	0.752	0.777	0.791	0.851
EMC-BAC-2	1.06	1.05	0.968	0.617	1.19	1.09	0.981	1.08
LK-2	1.34	1.24	1.05	0.761	0.831	0.876	0.843	0.825
NCI-H2126	1.34	1	1.11	0.983	0.92	0.826	0.824	0.903
NCI-H3122	1.02	–	0.877	0.777	1.07	0.993	1.03	1.04
NCI-H1975	0.887	0.912	0.918	0.481	1.13	1.07	1.04	0.818
NCI-H1944	0.87	0.786	0.832	0.61	1.03	1.18	1.11	1.15
LU99A	0.96	0.895	0.857	0.821	0.819	0.788	0.576	0.792
SW 1573	0.808	0.869	0.887	0.728	0.957	1.01	0.971	1.22
NCI-H2347	0.788	0.781	0.864	0.834	0.771	0.832	0.902	0.889
NCI-H2009	1.22	1.12	1.22	0.896	1.16	1.14	1.03	1.15
HCC-15	1.13	1.09	0.94	0.877	0.721	0.697	0.71	0.704

Cell Line	relative viability ([1]; first compound 0.0128 µM)	relative viability ([1]; first compound 0.04048 µM)	relative viability ([1]; first compound 0.128 µM)	relative viability ([1]; first compound 1.28 µM)	relative viability (Midostaurin + Navitoclax; first compound 0.01 µM)	relative viability (Midostaurin + Navitoclax; first compound 0.03162 µM)	relative viability (Midostaurin + Navitoclax; first compound 0.1 µM)	relative viability (Midostaurin + Navitoclax; first compound 0.3162 µM)
HCC-44	–	–	–	–	0.949	0.982	0.831	0.96
COR-L23	1.08	1.14	0.894	0.981	0.99	0.966	0.87	0.925
HCC-78	0.544	0.733	0.467	0.376	0.835	0.638	0.815	0.341
NCI-H1299	1.13	1.23	1.14	1.08	1.07	0.989	1.01	1.01
NCI-H727	0.915	–	0.831	0.587	0.41	0.368	0.361	0.4
NCI-H2087	1.25	–	1.11	0.948	1	0.98	0.875	0.897
BEN	0.502	0.642	0.602	0.45	0.0719	0.0568	0.0815	0.064
LCLC-103H	0.774	0.972	0.616	0.65	–	–	–	–
EKVX	0.881	0.755	0.744	0.575	0.907	0.955	0.893	0.905
LXF-289	1.05	0.962	0.986	1.03	0.954	0.92	0.875	0.968
ABC-1	0.967	0.953	1.05	0.881	–	–	–	–
NCI-H650	1.02	1.24	1.07	1.02	–	–	–	–
NCI-H1650	1.07	1.45	1.14	0.911	1.29	1.03	1.08	0.846
NCI-H2085	1.12	0.876	0.834	0.691	1.16	1.06	1.02	0.757
NCI-H1793	0.669	0.809	0.648	0.406	0.417	0.533	0.513	0.493
LC-2-ad	0.932	0.976	0.886	0.662	0.477	0.405	0.439	0.224
COR-L 105	1.04	1.34	0.994	0.598	0.733	0.941	0.51	0.862
NCI-H1355	1	0.958	0.988	0.883	0.966	0.924	1.01	0.847
H3255	0.761	0.813	0.849	0.557	0.575	0.587	0.488	0.562
NCI-H1993	0.747	0.743	0.784	0.556	0.964	0.901	0.972	0.992
NCI-H1734	0.877	0.683	0.897	0.536	0.829	0.813	0.798	0.697
HOP-62	1.16	1.12	1.07	1.03	0.928	0.981	0.957	1.04
LOU-NH91	0.991	0.99	0.968	0.922	0.753	0.702	0.729	0.825
ChaGo-K-1	0.994	0.897	0.892	0.742	0.909	1.36	0.915	1.25
NCI-H2228	0.92	1.05	0.825	0.622	0.665	0.824	1.01	1.02
PC-14	0.956	1.06	0.885	0.979	0.973	1.01	0.985	0.965

Cell Line	relative viability ([1]; first compound 0.0128 µM)	relative viability ([1]; first compound 0.04048 µM)	relative viability ([1]; first compound 0.128 µM)	relative viability ([1]; first compound 1.28 µM)	relative viability (Midostaurin + Navitoclax; first compound 0.01 µM)	relative viability (Midostaurin + Navitoclax; first compound 0.03162 µM)	relative viability (Midostaurin + Navitoclax; first compound 0.1 µM)	relative viability (Midostaurin + Navitoclax; first compound 0.3162 µM)
NCI-H1437	1.34	1.31	1.29	1.29	1.13	1.03	1.07	1.12
NCI-H460	1	1.13	0.916	0.975	1.08	0.994	1.05	1.07
NCI-H1666	0.971	0.881	0.957	0.947	0.872	0.855	0.84	0.846
SW 900	0.813	0.91	0.843	0.66	–	–	–	–
NCI-H1651	0.911	0.886	0.969	0.692	1.01	1.07	0.897	0.898
NCI-H1755	1.02	0.87	0.833	0.885	0.966	0.927	0.828	0.627
NCI-H661	1.16	1.13	1.01	1.03	–	–	–	–
HARA	1.07	0.846	0.687	0.332	1.13	1.12	1.14	1.14
NCI-H596	0.884	0.835	0.709	0.558	1.09	1.02	0.978	1.07
NCI-H1563	0.913	0.997	0.936	0.685	–	–	–	–
NCI-H23	1.22	1.03	0.797	0.651	0.875	0.95	0.396	0.788
A549	0.927	0.991	0.969	0.935	1.2	1.08	1.08	0.77
LCLC-97TM1	1.06	0.692	0.864	0.887	0.467	–	0.393	0.508
EPLC-272H	0.78	–	0.705	0.37	1.11	0.96	0.856	1.27
NCI-H2342	0.958	1.11	0.914	0.731	–	–	–	–
NCI-H1915	1.14	1.03	1.06	0.844	0.8	0.827	0.794	0.799
NCI-H2405	1.09	0.855	1.04	0.535	0.921	1.04	–	0.655
NCI-H322M	1.03	1.11	0.878	0.785	1.18	1.19	1.31	1.26
NCI-H2170	1.09	1.01	0.991	0.97	0.609	0.673	0.549	0.569
NCI-H1623	0.855	0.696	0.763	0.595	–	–	–	–
NCI-H1395	0.975	0.95	0.9	0.72	1.11	1.09	1.17	1.25
IA-LM	1.19	1.1	1.16	0.97	0.81	–	0.701	0.631
NCI-H358	0.766	0.626	0.685	0.279	–	–	–	–
NCI-H838	1.01	0.989	0.973	0.604	1.23	1.04	1.02	0.354
CAL-12T	1.13	1.06	1.31	1.12	1.44	0.981	1.05	1.2
EBC-1	0.104	0.0846	0.126	0.112	0.49	0.453	0.429	0.312

Source: the supplement of paper PMC10307832
